The text below walks through data of BindingDB's records for doi:10.1021/jm9806650 (Institute of Chemical Technology, 1999).

Broadly, the IC50 is the concentration needed to halve the response being measured.

This assay is described as follows: The compound was tested in vitro for inhibition of HIV-1 replication.

`COc1ccc(-c2c3n(c4c(=O)oc5cc(OS(=O)(=O)O)c(OC)cc5c24)C(O)Cc2c-3cc(OC)c(OC)c2OC)cc1O` (stereo not given) [7-Hydroxy-13-(3-hydroxy-4-methoxy-phenyl)-2,9,10,11-tetramethoxy-7,8-dihydro-5-oxa-6b-aza-dibenzo[a,i]fluoren-6-one sodium sulfonate]: the half-inhibitory concentration (IC50) amounted to 20 µM. The compound `COc1ccc(-c2c3c4cc(OC)c(O)cc4oc(=O)c3n3ccc4c(OC)c(OC)c(OC)cc4c23)cc1O` [3-Hydroxy-13-(3-hydroxy-4-methoxy-phenyl)-2,9,10,11-tetramethoxy-5-oxa-6b-aza-dibenzo[a,i]fluoren-6-one] yielded a concentration for half-maximal inhibition (IC50) of 20 µM. In turn, `COc1ccc(-c2c3n(c4c(=O)oc5cc(OS(=O)(=O)O)c(OC)cc5c24)CCc2cc(OC)c(OC)cc2-3)cc1O` yielded a concentration for half-maximal inhibition (IC50) of 12 µM. For the compound `COc1ccc(-c2c3n(c4c(=O)oc5cc(O)c(OC)cc5c24)CCc2c-3cc(OC)c(OC)c2OC)cc1O` [3-Hydroxy-13-(3-hydroxy-4-methoxy-phenyl)-2,9,10,11-tetramethoxy-7,8-dihydro-5-oxa-6b-aza-dibenzo[a,i]fluoren-6-one], the concentration for half-maximal inhibition (IC50) turned out to be 18 µM. Then `COc1ccc(-c2c3c4cc(OC)c(O)cc4oc(=O)c3n3ccc4cc(O)c(OC)cc4c23)cc1O` [3,10-Dihydroxy-13-(3-hydroxy-4-methoxy-phenyl)-2,11-dimethoxy-5-oxa-6b-aza-dibenzo[a,i]fluoren-6-one], with 1 µM.
